The results in this text go back to ChEMBL document CHEMBL5331077, “Combining pharmacophore models derived from DNA-encoded chemical libraries with structure-based exploration to predict Tankyrase 1 inhibitors” (Eur J Med Chem, 2023).

Calls of active or inactive are those of the source. No cut-off for these calls is given here.

Assay [1] deals with T1, Poly [ADP-ribose] polymerase tankyrase-1 (Homo sapiens, UniProt O95271).
T1 sequence (O95271 whole entry): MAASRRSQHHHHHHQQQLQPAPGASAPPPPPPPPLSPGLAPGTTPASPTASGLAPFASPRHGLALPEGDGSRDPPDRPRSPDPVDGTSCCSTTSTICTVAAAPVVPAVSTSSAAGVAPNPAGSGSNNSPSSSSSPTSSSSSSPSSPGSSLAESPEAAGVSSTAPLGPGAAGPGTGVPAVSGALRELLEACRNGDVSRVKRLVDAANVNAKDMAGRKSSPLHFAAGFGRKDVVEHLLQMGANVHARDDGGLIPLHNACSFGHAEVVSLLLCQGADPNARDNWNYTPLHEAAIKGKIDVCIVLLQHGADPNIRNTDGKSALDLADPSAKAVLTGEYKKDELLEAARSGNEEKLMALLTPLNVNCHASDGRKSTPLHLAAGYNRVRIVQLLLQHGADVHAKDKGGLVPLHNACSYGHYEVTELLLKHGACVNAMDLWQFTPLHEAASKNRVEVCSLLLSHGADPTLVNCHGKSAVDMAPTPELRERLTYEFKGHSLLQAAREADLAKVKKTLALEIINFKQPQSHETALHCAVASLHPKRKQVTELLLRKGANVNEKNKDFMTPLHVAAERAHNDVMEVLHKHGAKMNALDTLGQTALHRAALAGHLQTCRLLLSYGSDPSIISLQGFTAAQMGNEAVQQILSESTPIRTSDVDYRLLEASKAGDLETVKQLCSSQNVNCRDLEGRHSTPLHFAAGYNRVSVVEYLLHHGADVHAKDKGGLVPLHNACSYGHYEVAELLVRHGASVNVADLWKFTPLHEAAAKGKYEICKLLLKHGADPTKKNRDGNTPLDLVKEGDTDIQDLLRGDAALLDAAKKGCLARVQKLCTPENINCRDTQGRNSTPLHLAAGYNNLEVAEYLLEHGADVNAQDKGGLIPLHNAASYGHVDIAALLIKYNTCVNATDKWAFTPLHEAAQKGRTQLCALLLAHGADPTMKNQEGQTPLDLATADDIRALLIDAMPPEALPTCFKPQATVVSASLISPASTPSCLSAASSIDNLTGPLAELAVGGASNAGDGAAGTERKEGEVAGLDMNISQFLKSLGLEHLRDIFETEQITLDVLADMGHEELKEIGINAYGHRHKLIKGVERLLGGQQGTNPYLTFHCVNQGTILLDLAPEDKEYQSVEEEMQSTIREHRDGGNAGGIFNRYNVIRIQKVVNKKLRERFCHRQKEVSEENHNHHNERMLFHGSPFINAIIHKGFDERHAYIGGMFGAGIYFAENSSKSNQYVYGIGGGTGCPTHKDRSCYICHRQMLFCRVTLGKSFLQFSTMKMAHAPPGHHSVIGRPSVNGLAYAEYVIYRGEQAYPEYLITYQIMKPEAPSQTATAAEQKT
In words: Inhibition of TNKS1 (unknown origin) using biotinylated NAD as substrate preincubated for 30 mins followed by substrate addition and measured after 1 hr by BioTek synergy 2 microplate reader analysis.

Assay [2] has as its target T2, Protein mono-ADP-ribosyltransferase PARP8 (Homo sapiens) (UniProt Q8N3A8).
T2 sequence (whole entry): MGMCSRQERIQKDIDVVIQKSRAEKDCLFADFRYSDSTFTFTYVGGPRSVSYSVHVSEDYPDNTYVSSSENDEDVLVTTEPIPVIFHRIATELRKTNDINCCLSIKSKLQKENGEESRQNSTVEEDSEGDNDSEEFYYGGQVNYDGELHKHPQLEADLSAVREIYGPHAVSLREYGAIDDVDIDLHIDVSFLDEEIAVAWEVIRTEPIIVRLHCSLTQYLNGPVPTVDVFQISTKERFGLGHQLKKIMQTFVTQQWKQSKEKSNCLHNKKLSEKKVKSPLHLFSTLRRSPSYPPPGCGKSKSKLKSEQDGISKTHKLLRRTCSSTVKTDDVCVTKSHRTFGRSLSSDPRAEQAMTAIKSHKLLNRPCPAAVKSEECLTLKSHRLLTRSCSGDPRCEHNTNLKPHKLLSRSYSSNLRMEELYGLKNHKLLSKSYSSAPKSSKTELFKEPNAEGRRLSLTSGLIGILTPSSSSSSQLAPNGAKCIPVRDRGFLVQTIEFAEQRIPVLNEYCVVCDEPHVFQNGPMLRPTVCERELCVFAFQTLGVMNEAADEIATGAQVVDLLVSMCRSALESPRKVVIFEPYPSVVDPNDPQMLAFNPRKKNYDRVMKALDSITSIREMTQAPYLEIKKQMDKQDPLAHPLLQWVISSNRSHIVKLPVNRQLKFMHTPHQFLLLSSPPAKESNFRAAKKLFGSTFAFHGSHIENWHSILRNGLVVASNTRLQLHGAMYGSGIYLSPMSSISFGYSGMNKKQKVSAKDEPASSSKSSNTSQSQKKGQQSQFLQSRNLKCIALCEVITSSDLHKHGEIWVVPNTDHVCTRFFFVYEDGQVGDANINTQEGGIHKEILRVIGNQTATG
In words: Inhibition of PARP8 (unknown origin).

The target of assay [3] is T3, Protein mono-ADP-ribosyltransferase PARP12 (Homo sapiens) (UniProt Q9H0J9).
T3 sequence (whole entry): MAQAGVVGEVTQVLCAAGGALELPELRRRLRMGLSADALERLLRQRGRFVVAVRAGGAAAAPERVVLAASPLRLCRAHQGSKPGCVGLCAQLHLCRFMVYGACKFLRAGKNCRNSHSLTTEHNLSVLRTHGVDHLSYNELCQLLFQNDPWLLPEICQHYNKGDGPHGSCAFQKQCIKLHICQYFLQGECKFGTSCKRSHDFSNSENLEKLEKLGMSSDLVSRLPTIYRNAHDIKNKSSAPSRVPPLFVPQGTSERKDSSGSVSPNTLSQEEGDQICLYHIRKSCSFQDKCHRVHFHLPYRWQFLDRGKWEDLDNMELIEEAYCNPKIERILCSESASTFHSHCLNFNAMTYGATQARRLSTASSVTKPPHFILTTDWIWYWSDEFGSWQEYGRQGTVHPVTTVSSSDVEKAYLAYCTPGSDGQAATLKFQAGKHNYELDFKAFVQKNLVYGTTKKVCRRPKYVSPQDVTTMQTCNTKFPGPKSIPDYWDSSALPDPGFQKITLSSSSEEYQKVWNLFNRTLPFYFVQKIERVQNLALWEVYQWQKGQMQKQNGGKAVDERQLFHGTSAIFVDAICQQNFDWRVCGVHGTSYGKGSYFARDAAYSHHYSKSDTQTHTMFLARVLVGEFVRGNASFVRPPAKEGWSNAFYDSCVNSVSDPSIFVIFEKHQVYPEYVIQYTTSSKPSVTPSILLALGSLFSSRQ
The assay can be described thus: Inhibition of PARP12 (unknown origin).

Consider `Cc1cc(OCC(=O)NCCNC(=O)c2cccc(COc3ccccc3C(N)=O)c2)c2c3c(c(=O)oc2c1)CCC3`, for which, in assay [1], the IC50 came to 2 nM. Besides, the inhibition entry in assay [2] and in assay [3] was “inactive” each time.
For `CNC(=O)[C@H](CNC(=O)CCn1c(=O)[nH]c(=O)c2ccccc21)NC(=O)c1cnc2ccccc2c1`, the IC50 in assay [1] came to 0.8 nM. In addition, the inhibition result in assay [2] and in assay [3] was “inactive” in each case.

The IC50 is the midpoint of a concentration-inhibition curve.
